The values below come from patent US3984543A, “Therapeutic methods employing cyclic aminophosphonic acids” (Henkel & Cie G.m.b.H., priority 1973, dated 1976).

Series [1] in a line: Threshold effect: prevention of precipitation of poorly soluble calcium compounds by substoichiometric amounts. It is filed as physicochemical. Conditions: 30 minutes. Here is the method: The prevention of the precipitation of poorly soluble calcium compounds by substoichiometric amounts of a sequestering agent was determined at 60° and 95° C as follows:
25 ml of 80° dH (German hardness) water (corresponding to 800 mg CaO/l.) were mixed with a 10 ml of a solution of the sequestering agent (concentration: 300 mg/l.). After dilution with distilled water to 70 ml, 25 ml of a sodium carbonate solution containing 4 gm/l. were added and the solution was brought to 100 ml. After heating for 30 minutes at the indicated temperature, any precipitate formed was separated. The sequestering agent was removed from a measured amount of the clear filtrate by means of an anion exchange resin. Then the content of the dissolved calcium in this sample was determined by complexometry (according to Scharzenbach).

Series [2] is described as follows: Sequestration of calcium (modified Hampshire test). In kind it is physicochemical. The conditions noted are these: pH 11; for Consumption of Sequestering Agent Solution: 1 gm sequestering agent in 50 ml H2O, until CaCO3 precipitate redissolved. Here is the method:
In the investigation of the sequestration of calcium, a modified Hampshire test was employed and worked as follows:
1 gm of the sequestering agent was dissolved in 50 ml of H2 O, adjusted with NaOH to a pH of 11. 50 ml of a Ca^+^+ solution (1470 mg of CaCl2.2H2 0/1) were mixed with 100 ml of a sodium carbonate solution (7.15 gm NaCO3.10H2 O/l.). Then the solution of the sequestering agent was added in drops from a burette until the calcium carbonate precipitate was redissolved. The values formed have been reported in Table I. For the sake of simplicity, only the value for n and the various substituents for R according to Formula I are indicated in the left column of the Table.

The nature of series [3]: Calcium phosphate dissolution in vitro (CaHPO4 test). In kind it is physicochemical. The conditions noted are these: for Consumption Sequestering Agent Solution: 10 mg/ml solution, pH 7.4, clear solution after 1 hour; for mg CaHPO4 dissolved / gm Sequestering Agent: pH 7.4, 1 hour. Here is the method:
Essential tests for the effectiveness of the compounds in physiological systems are in vitro tests for the dissolving of freshly precipitated CaHPO4, as well as preventing the precipitation of NH4 MgPO4 at a pH of 7.4. The "CaHPO4 test" was carried out as follows.
By combining 25 ml of a phosphate solution (1.38 gm of NaH2 PO4.H2 O/liter, standardized to a pH of 7.4) and 25 ml of a calcium solution (1.45 gm of CaCl2.2H2 O/liter, standardized to a pH of 7.4), a precipitate of CaHPO4 was produced. Thereafter, so much of a solution of the sequestering agent (at a concentration of 10 mg/ml) was added from a burette that a clear solution was obtained after standing for 1 hour.

Series [4] in a line: Inhibition of precipitation of NH4 MgPO4 in vitro. It is filed as physicochemical. Conditions: pH 7.4, 72 hours. Here is the method: Since the precipitation of NH4 MgPO4 is occasionally the cause of the formation of urinary calculus, the inhibition of the precipitation of NH4 MgPO4 was also tested in aqueous solutions at pH 7.4. The test was carried out as follows.
A fixed amount of the phosphonic acid was weighed into a beaker and dissolved with 25 ml of a phosphate solution (13.799 gm of NaH2 PO4.H2 O/liter) as well as with 40 ml of distilled water, and standardized with NaOH to a pH of 7.4. After adding 25 ml of a Mg^+^+ and NH4 ^+ solution (20.333 gm of MgC12.6H2 O and 5.349 gm of NH4 Cl/liter, standardized to a pH of 7.4), the solution was brought up with distilled H2 O to 100 ml. Then the sample was covered and evaluated after 72 hours for amount and appearance of the precipitate. The explanation of the data in the left column is to be found in Example 8.

A short description of series [5]: Apatite crystallization delay test in vitro. It is filed as physicochemical. The conditions noted are these: 2 mg, pH 7.4, 35°C. Here is the method: Supersaturated solutions of Ca^+^+ and HPO4 ^-^- ions are relatively stable, but crystallize after the addition of an apatite nuclei according to the reaction
with the release of protons. The reaction can, therefore, be readily observed by titration with a base at a constant pH.
400 ml of 0.0008 molar KH2 PO4 solution were mixed with 45 ml of a 0.012 molar CaCl2 solution, and the clear solution was standardized with KOH to a pH of 7.4, after being brought to a temperature of 35°C. […] The crystallization set in immediately and was followed by "pH-Stat" titration with 0.05 N KOH.
If a small amount (2 mg) of one of the cyclic aminophosphonic acids of the invention was added to the solution before the apatite was added, the crystallization was greatly delayed.
For simplicity's sake, only the value for n and the various substituents for R according to Formula I in Example 8 are indicated in the left column of the Table.

Series [6] in a line: Acute toxicity (LD50) in mice. Conditions: mouse, in vivo. The source says: The new phosphonic acids are characterized by a very low acute toxicity. The following LD50 values of Table IV were found in mice. For the explanation of the data in the left column of Table IV, see Example 8.

Regarding `NC1(P(=O)(O)O)CC(=O)NP1(=O)O` (stereo not shown) [n=1, R=H, 2-Hydroxy-2-oxo-3-amino-3-phosphonyl-5-oxo-1-aza-2-phospha-cyclopentane], in series [1] (60 °C), the “CaO in Solution” value is reported as 76.1% and the CaO precipitated came to 23.9%. In addition, in series [1] (95 °C), the “CaO in Solution” value came out at 87.7% and the CaO precipitated came to 12.3%. Also, in series [2], the “Consumption of Sequestering Agent Solution” value was 2.6 mL and the “mg CaCO3 Sequestered per gm of Compound” value is 1040 mg CaCO3 per gm of Compound. In series [3], the “Consumption Sequestering Agent Solution” value stood at 8.0 mL and the “mg CaHPO4 dissolved / gm Sequestering Agent” value is 420 mg CaHPO4 / gm Sequestering Ag.

For the molecule `CCNC1(P(=O)(O)O)CCC(=O)N(CC)P1(=O)O` (stereo not shown) [n=2, R=C2 H5, 1-Ethyl-2-hydroxy-2-oxo-3-ethylamino-3-phosphonyl-6-oxo-1-aza-2-phospha-cyclohexane], in series [2], the “Consumption of Sequestering Agent Solution” value worked out at 2.25 mL and the “mg CaCO3 Sequestered per gm of Compound” value was 1110 mg CaCO3 per gm of Compound.

`CNC1(P(=O)(O)O)CCC(=O)N(C)P1(=O)O` (stereo not shown) [n=2, R=CH3, 1-Methyl-2-hydroxy-2-oxo-3-methylamino-3-phosphonyl-6-oxo-1-aza-2-phospha-cyclohexane]: in series [4] (145 mg), the “Precipitation after 72 hours: NH4 MgPO4 crystals” value is recorded as “Very few NH4 MgPO4 crystals” and the “Precipitation after 72 hours: cloudiness” value was “no cloudiness”. For the same molecule, in series [4] (217.5 mg), the “Precipitation after 72 hours: NH4 MgPO4 crystals” value is on record as “No NH4 MgPO4 crystals” and the “Precipitation after 72 hours: cloudiness” value is “no”. In series [2], the “Consumption of Sequestering Agent Solution” value worked out at 3.0 mL and the “mg CaCO3 Sequestered per gm of Compound” value is on record as 840 mg CaCO3 per gm of Compound. In series [3], the “Consumption Sequestering Agent Solution” value worked out at 4.0 mL and the “mg CaHPO4 dissolved / gm Sequestering Agent” value was 850 mg CaHPO4 / gm Sequestering Ag. In series [5], the “Delay of crystallization in % after 4 Hours” value was 84% and the “Delay of crystallization in % after 8 Hours” value was determined as 76%.

Take `NC1(P(=O)(O)O)CCC(=O)NP1(=O)O` (stereo not shown) [n=2, R=H, 2-Hydroxy-2-oxo-3-amino-3-phosphonyl-6-oxo-1-aza-2-phospha-cyclohexane]: in series [1] (60 °C), the “CaO in Solution” value is given as 99.6% and the CaO precipitated is on record as 0.4%. In series [1] (95 °C), the “CaO in Solution” value was found to be 99.5% and the CaO precipitated is given as 0.5%. In series [6], the LD50 – broadly, the dose expected to kill half of the subjects tested – came out at 3200 mg/kg. In series [4] (61 mg), the “Precipitation after 72 hours: NH4 MgPO4 crystals” value is “Few NH4 MgPO4 crystals” and the “Precipitation after 72 hours: cloudiness” value was “some”. Also, in series [4] (122 mg), the “Precipitation after 72 hours: NH4 MgPO4 crystals” value is recorded as “No NH4 MgPO4 crystals” and the “Precipitation after 72 hours: cloudiness” value was “great”. Besides, in series [2], the “Consumption of Sequestering Agent Solution” value is 2.6 mL and the “mg CaCO3 Sequestered per gm of Compound” value was 1040 mg CaCO3 per gm of Compound. For the same molecule, in series [3], the “Consumption Sequestering Agent Solution” value was 6.0 mL and the “mg CaHPO4 dissolved / gm Sequestering Agent” value was 570 mg CaHPO4 / gm Sequestering Ag.

With `CNC1(P(=O)(O)O)CCCC(=O)N(C)P1(=O)O` (stereo not shown) [n=3, R=CH3, 1-Methyl-2-hydroxy-2-oxo-3-methylamino-3-phosphonyl-7-oxo-1-aza-2-phospha-cycloheptane], in series [4] (72 mg), the “Precipitation after 72 hours: NH4 MgPO4 crystals” value is on record as “Few NH4 MgPO4 crystals”. Also, in series [4] (144 mg), the “Precipitation after 72 hours: NH4 MgPO4 crystals” value is recorded as “No NH4 MgPO4 crystals”. Further, in series [2], the “Consumption of Sequestering Agent Solution” value was 3.8 mL and the “mg CaCO3 Sequestered per gm of Compound” value is 660 mg CaCO3 per gm of Compound. In series [3], the “Consumption Sequestering Agent Solution” value was determined as 5.0 mL and the “mg CaHPO4 dissolved / gm Sequestering Agent” value is 680 mg CaHPO4 / gm Sequestering Ag.

`NC1(P(=O)(O)O)CCCC(=O)NP1(=O)O` (stereo not shown) [n=3, R=H, 2-Hydroxy-2-oxo-3-amino-3-phosphonyl-7-oxo-1-aza-2-phospha-cycloheptane]: in series [1] (60 °C), the “CaO in Solution” value is reported as 99.6% and the CaO precipitated was 0.4%. Besides, in series [1] (95 °C), the “CaO in Solution” value worked out at 99.5% and the CaO precipitated was 0.5%. This molecule registered an LD50 in series [6] of 10000 mg/kg. In series [4] (68.5 mg), the “Precipitation after 72 hours: NH4 MgPO4 crystals” value is on record as “Fewer NH4 MgPO4 crystals” and the “Precipitation after 72 hours: cloudiness” value is recorded as “great cloudiness”. Also, in series [2], the “Consumption of Sequestering Agent Solution” value is 3.1 mL and the “mg CaCO3 Sequestered per gm of Compound” value was 810 mg CaCO3 per gm of Compound. In addition, in series [3], the “Consumption Sequestering Agent Solution” value turned out to be 2.5 mL and the “mg CaHPO4 dissolved / gm Sequestering Agent” value is given as 1350 mg CaHPO4 / gm Sequestering Ag. Besides, in series [5], the “Delay of crystallization in % after 4 Hours” value is listed as 96% and the “Delay of crystallization in % after 8 Hours” value was determined as 96%.
